The test deals with Human immunodeficiency virus. Kind of test: Antiviral activity against HIV assessed as inhibition of viral replication. Type of test: functional, organism-based.

The structures appear in SMILES notation. Activity calls are given as the source filed them. The calls are words filed in the database; no cut-off is given here.

As for `COc1cc(O)cc(C/C=C(\C)CC/C=C(\C)CCC=C(C)C)c1O`, the outcome was inactive. With `COC1=CC(=O)C=C(C/C=C(\C)CC/C=C(\C)CCC=C(C)C)C1=O` the entry was “inactive”.

For the origin of these results see ChEMBL document CHEMBL1149062, “A Sesquiterpene Quinone and Hydroquinone from the Southern Australian Marine Sponge, Thorecta choanoides” (J Nat Prod, 1994).
